Measurements: patent US7309708B2, “Hepatitis C virus inhibitors” (priority 2003, dated 2007)

Experiments:
[1] = molecular target: T1, HCV NS3/4A protease complex (BMS strain) (UniProt P27958); test: Recombinant HCV NS3/4A protease complex FRET peptide assay (BMS strain); type: biochemical, Hepatitis C virus (genotype 1a; conditions: read-out: IC50 (uuM); NS3/4A BMS strain; activity range class
T1 construct: for H77 and J4L6S; fused on or other part: Probably a three-lysine solubilising tail at the C-terminus of NS4A and a His tag from pET21b (Ni-NTA purification); These are printed for the H77 and J4L6S constructs and only inferred for BMS
Source text: Serum from an HCV-infected patient was obtained from Dr. T. Wright, San Francisco Hospital. An engineered full-length cDNA (compliment deoxyribonucleic acid) template of the HCV genome (BMS strain) was constructed from DNA fragments obtained by reverse transcription-PCR (RT-PCR) of serum RNA (ribonucleic acid) and using primers selected on the basis of homology between other genotype 1a strains.
The H77 and J4L6S strains were used for production of recombinant NS3/4A protease complexes. […] Briefly, a three-lysine solubilizing tail was added at the 3′-end of the NS4A coding region. […] Briefly, the NS3/4A protease complex expression was induced with 0.5 millimolar (mM) Isopropyl β-D-1-thiogalactopyranoside (IPTG) for 22 hours (h) at 20° C. […] The cells were resuspended in lysis buffer (10 mL/g) consisting of 25 mM N-(2-Hydroxyethyl)Piperazine-N′-(2-Ethane Sulfonic acid) (HEPES), pH 7.5, 20% glycerol, 500 mM Sodium Chloride (NaCl), 0.5% Triton X-100, 1 microgram/milliliter (“μg/mL”) lysozyme, 5 mM Magnesium Chloride (MgCl2), 1 gg/ml DnaseI, 5 mM β-Mercaptoethanol (βME), Protease inhibitor—Ethylenediamine Tetraacetic acid (EDTA) free (Roche), homogenized and incubated for 20 minutes (min) at 4° C. The homogenate was sonicated and clarified by ultra-centrifugation at 235000 g for 1 h at 4° C. Imidazole was added to the supernatant to a final concentration of 15 mM and the pH adjusted to 8.0. The crude protein extract was loaded on a Nickel-Nitrilotriacetic acid (Ni-NTA) column pre-equilibrated with buffer B (25 mM HEPES, pH 8.0, 20% glycerol, 500 mM NaCl, 0.5% Triton X-100, 15 mM imidazole, 5 mM βME). The sample was loaded at a flow rate of 1 mL/min. The column was washed with 15 column volumes of buffer C (same as buffer B except with 0.2% Triton X-100). The protein was eluted with 5 column volumes of buffer D (same as buffer C except with 200 mM Imidazole).
NS3/4A protease complex-containing fractions were pooled and loaded on a desalting column Superdex-S200 pre-equilibrated with buffer D (25 mM HEPES, pH 7.5, 20% glycerol, 300 mM NaCl, 0.2% Triton X-100, 10 mM βME). Sample was loaded at a flow rate of 1 mL/min. NS3/4A protease complex-containing fractions were pooled and concentrated to approximately 0.5 mg/ml.
The enzyme was stored at −80° C., thawed on ice and diluted prior to use in assay buffer. […] The sequence of this peptide is loosely based on the NS4A/NS4B natural cleavage site for the HCV NS3 protease except there is an ester linkage rather than an amide bond at the cleavage site. The peptide substrate was incubated with one of the three recombinant NS3/4A protease complexes, in the absence or presence of a compound of the present invention, and the formation of fluorescent reaction product was followed in real time using a Cytofluor Series 4000.
Assay buffer: 50 mM HEPES, pH 7.5; 0.15 M NaCl; 0.1% Triton; 15% Glycerol; 10 mM βME. Substrate: 2 μM final concentration (from a 2 mM stock solution in DMSO stored at −20° C.). HCV NS3/4A protease type 1a (1b), 2-3 nM final concentration (from a 5 μM stock solution in 25 mM HEPES, pH 7.5, 20% glycerol, 300 mM NaCl, 0.2% Triton-X100, 10 mM βME).
The assay was performed in a 96-well polystyrene black plate from Falcon. Each well contained 25 μl NS3/4A protease complex in assay buffer, 50 μl of a compound of the present invention in 10% DMSO/assay buffer and 25 μl substrate in assay buffer. A control (no compound) was also prepared on the same assay plate.

[2] = tested on: HCV replicon (strain 1b) in Huh7 cells; test: microbe, parasite or virus in culture; type: cell-based; conditions: Hepatitis C virus, Huh-7, 96 h; Huh7 cells expressing HCV replicon, 4 days; activity range class
Source text: This system enabled us to evaluate the effects of our HCV Protease compounds on HCV RNA replication. Briefly, using the HCV strain 1b sequence described in the Lohmann paper (Assession number: AJ238799), an HCV cDNA was generated encoding the 5′ internal ribosome entry site (IRES), the neomycin resistance gene, the EMCV (encephalomyocarditis virus)-IRES and the HCV nonstructural proteins, NS3-NS5B, and 3′ non-translated region (NTR). In vitro transcripts of the cDNA were transfected into the human hepatoma cell line, Huh7. […] Resulting cell lines were characterized for positive and negative strand RNA production and protein production over time.
Huh7 cells, constitutively expressing the HCV replicon, were grown in Dulbecco's Modified Eagle Media (DMEM) containing 10% Fetal calf serum (FCS) and 1 mg/ml G418 (Gibco-BRL). Cells were seeded the night before (1.5×10^4 cells/well) in 96-well tissue-culture sterile plates. Compound and no compound controls were prepared in DMEM containing 4% FCS, 1:100 Penicillin/Streptomysin, 1:100 L-glutamine and 5% DMSO in the dilution plate (0.5% DMSO final concentration in the assay). Compound/DMSO mixes were added to the cells and incubated for 4 days at 37° C. After 4 days, plates were rinsed thoroughly with Phosphate-Buffered Saline (PBS) (3 times 150 μl). The cells were lysed with 25 μl of a lysis assay reagent containing the FRET peptide (RET S1, as described for the in vitro enzyme assay). The lysis assay reagent was made from 5× cell Luciferase cell culture lysis reagent (Promega #E153A) diluted to 1× with distilled water, NaCl added to 150 mM final, the FRET peptide diluted to 10 μM final from a 2 mM stock in 100% DMSO. The plate was then placed into the Cytofluor 4000 instrument which had been set to 340 nm excitation/490 nm emission, automatic mode for 21 cycles and the plate read in a kinetic mode. EC50 determinations were carried out as described for the IC50 determinations.
The replicon construct described for our FRET assay was modified by replacing the resistance gene neomycin with the Blasticidin-resistance gene fused to the N-terminus of the humanized form of Renilla luciferase (restriction sites Asc1/Pme1 used for the subcloning). […] The luciferase reporter assay was set up by seeding huh7 cells the night before at a density of 2×10^6 cells per T75 flask. Cells were washed the next day with 7.5 ml Opti-MEM. Following the Invitrogen protocol, 40 μl DMRIE-C was vortexed with 5 ml Opti-MEM before adding 5 μg HCV reporter replicon RNA. The mix was added to the washed huh7 cells and left for 4 h at 37° C. In the mean time, serial compound dilutions and no compound controls were prepared in DMEM containing 10% FCS and 5% DMSO in the dilution plate (0.5% DMSO final concentration in the assay). Compound/DMSO mixes were added to each well of a 24-well plate. After 4 h, the transfection mix was aspirated, and cells washed with 5 ml of Opti-MEM before trypsinization. Trypsinized cells were resuspended in 10% DMEM and seeded at 2×10^4 cells/well in the 24-well plates containing compound or no compound controls. Plates were incubated for 4 days. After 4 days, media was removed and cells washed with PBS. 100 μl 1× Renilla Luciferase Lysis Buffer (Promega) was immediately added to each well and the plates either frozen at −80° C. for later analysis, or assayed after 15 min of lysis. Lysate (40 μl) from each well was transferred to a 96-well black plate (clear bottom) followed by 200 μl 1× Renilla Luciferase assay substrate. Plates were read immediately on a Packard TopCount NXT using a luminescence program.
The values were graphed and analyzed using XLFit to obtain the EC50 value.

T1 sequence (P27958 1027-1657, one chain of several): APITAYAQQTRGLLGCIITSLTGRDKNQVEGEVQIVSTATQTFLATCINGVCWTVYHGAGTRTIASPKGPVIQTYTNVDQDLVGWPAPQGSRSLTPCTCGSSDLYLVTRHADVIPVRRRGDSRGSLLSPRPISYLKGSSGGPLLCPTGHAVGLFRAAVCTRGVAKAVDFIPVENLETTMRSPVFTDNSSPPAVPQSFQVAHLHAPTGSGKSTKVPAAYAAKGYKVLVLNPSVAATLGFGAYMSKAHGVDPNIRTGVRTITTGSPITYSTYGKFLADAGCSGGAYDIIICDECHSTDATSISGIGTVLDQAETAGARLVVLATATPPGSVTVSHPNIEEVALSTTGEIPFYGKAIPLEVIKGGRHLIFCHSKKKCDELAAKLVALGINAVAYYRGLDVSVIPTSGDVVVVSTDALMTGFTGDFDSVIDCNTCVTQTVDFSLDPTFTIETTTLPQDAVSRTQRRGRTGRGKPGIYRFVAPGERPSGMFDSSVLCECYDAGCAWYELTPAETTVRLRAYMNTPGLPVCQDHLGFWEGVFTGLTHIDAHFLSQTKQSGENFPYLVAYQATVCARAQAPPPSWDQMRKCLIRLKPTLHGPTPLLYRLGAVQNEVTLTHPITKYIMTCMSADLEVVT

| SMILES | IC50 [1] [µM] | EC50 [2] [µM] |
| --- | --- | --- |
| C=C[C@@H]1C[C@]1(NC(=O)[C@@H]1C[C@@H](Oc2nccc3cc(OC)ccc23)CN1C(=O)[C@@H](NC(=O)OC(C)(C)C)C(C)(C)C)C(=O)NS(=O)(=O)c1cc(Cl)c(Cl)s1 [Compound 1001] | < 0.1 | 1 to 10 |
| C=C[C@@H]1C[C@]1(NC(=O)[C@@H]1C[C@@H](Oc2nccc3cc(OC)ccc23)CN1C(=O)[C@@H](NC(=O)OC(C)(C)C)C(C)(C)C)C(=O)NS(=O)(=O)c1sc(C)nc1C [Compound 1003] | 0.1 to 1 | 0.1 to 1 |
| C=C[C@@H]1C[C@]1(NC(=O)[C@@H]1C[C@@H](Oc2nccc3cc(OC)ccc23)CN1C(=O)[C@@H](NC(=O)OC(C)(C)C)C(C)(C)C)C(=O)NS(=O)(=O)c1c(C)nn(C)c1Cl [Compound 1004] | 0.1 to 1 | 0.1 to 1 |
| C=C[C@@H]1C[C@]1(NC(=O)[C@@H]1C[C@@H](Oc2nccc3cc(OC)ccc23)CN1C(=O)[C@@H](NC(=O)OC(C)(C)C)C(C)(C)C)C(=O)NS(=O)(=O)c1cn(C)cn1 [Compound 1005] | 1 to 10 | 1 to 10 |
| C=C[C@@H]1C[C@]1(NC(=O)[C@@H]1C[C@@H](Oc2nccc3cc(OC)ccc23)CN1C(=O)[C@@H](NC(=O)OC(C)(C)C)C(C)(C)C)C(=O)NS(=O)(=O)c1cccs1 [Compound 1006] | < 0.1 | 0.1 to 1 |
| C=C[C@@H]1C[C@]1(NC(=O)[C@@H]1C[C@@H](Oc2nccc3cc(OC)ccc23)CN1C(=O)[C@@H](NC(=O)OC(C)(C)C)C(C)(C)C)C(=O)NS(=O)(=O)c1ccccc1 [Compound 1007] | < 0.1 | 0.1 to 1 |
| C=C[C@@H]1C[C@]1(NC(=O)[C@@H]1C[C@@H](Oc2nccc3cc(OC)ccc23)CN1C(=O)[C@@H](NC(=O)OC(C)(C)C)C(C)(C)C)C(=O)NS(=O)(=O)c1nnc(NC(C)=O)s1 [Compound 1011] | < 0.1 | 1 to 10 |
| C=C[C@@H]1C[C@]1(NC(=O)[C@@H]1C[C@@H](Oc2nccc3cc(OC)ccc23)CN1C(=O)[C@@H](NC(=O)OC(C)(C)C)C(C)(C)C)C(=O)NS(=O)(=O)c1c(C)noc1C [Compound 1012] | 1 to 10 | – |
